These are literature values, as cited in patent publication US20080003592A1, “Method for conducting pharmacogenomics-based studies” (priority 2003, published 2008).

For data set [1] the following is noted: advanced colorectal cancer.
The conditions of data set [2]: depending on the regimen.

Where a name gives a salt, the structure may show the parent alone.

Take `Nc1c2c(nc3ccccc13)CCCC2` [Cognex, tacrine hydrochloride]: the patients minimally improved entry (Alzheimer's patients receiving Cognex, controls about 33%) is “About 58%”. The “patients showing no change or minimal worsening of their disease” value (patients receiving Cognex for Alzheimer's disease, controls about 68%) was “about 45%”. The patients much improved result (patients receiving Cognex, controls about 1%) was “about 2%”.
As for `O=c1[nH]cc(F)c(=O)[nH]1` [5-fluorouracil], the “patients with an objective response to the drug” value in data set [1] (standard therapy) is reported as 20-40%. For the same molecule, the “patients with a complete response (complete tumor disappearance)” value in data set [1] (of the patients with an objective response) is recorded as 1-5%. Besides, the “patients suffering serious gastrointestinal or hematopoietic toxicity” value in data set [2] was 20-30%.
